Measured values published in PubChem BioAssay AID190 (DTP/NCI, 2004).
“And” between values parts separate entries of the source, which are not always exact repeats. Equal values may be shown once. Toxic doses and inconclusive results are not listed.

System: AKR/Lw mice, AKR lymphoma ip, median survival T/C
Assay: NCI In Vivo Anticancer Drug Screen. Data for tumor model Lymphoma AKR (Transplanted) (intraperitoneal) in AKR/Lw mice
Conditions: endpoint: median survival time, higher = longer survival
Procedure: The antitumor activity of compounds was measured in mice bearing transplantable tumors. Survival or tumor size were measured and the results are expressed as the measurement made in the treated group (T) divided by the measurement made in the vehicle treated control group (C). The tumor model used in this assay is Lymphoma AKR (Transplanted) (intraperitoneal) in AKR/Lw mice

[1] = dose: 0.25 mg/kg/injection, schedule: Q01DX001 (ip), vehicle: saline
[2] = dose: 0.3 mg/kg/injection, schedule: Q04DX003 (ip), vehicle: saline
[3] = dose: 1.2 mg/kg/injection, schedule: Q01DX009 (ip), vehicle: saline
[4] = dose: 1.5 mg/kg/injection, schedule: Q01DX001 (ip), vehicle: saline
[5] = dose: 2.5 mg/kg/injection, schedule: Q01DX009 (ip), vehicle: saline
[6] = dose: 200.0 mg/kg/injection, schedule: Q01DX001 (ip), vehicle: saline
[7] = dose: 100.0 mg/kg/injection, schedule: Q01DX001 (ip), vehicle: Klucel (hydroxypropylcellulose) (HPC)
[8] = dose: 200.0 mg/kg/injection, schedule: Q01DX001 (ip), vehicle: Klucel (hydroxypropylcellulose) (HPC)

Q: With `C1CN1c1nc(N2CC2)nc(N2CC2)n1` as the compound, how does the T/C (dose: 0.01 mg/kg/injection, schedule: Q04DX003 (ip), vehicle: saline) read?
A: 102 % of control

Q: And the T/C (dose: 0.02 mg/kg/injection, schedule: Q01DX009 (ip), vehicle: saline)?
A: 115 % of control

Q: And the T/C (dose: 0.02 mg/kg/injection, schedule: Q04DX003 (ip), vehicle: saline)?
A: 111 % of control

Q: What about the T/C (dose: 0.03 mg/kg/injection, schedule: Q01DX009 (ip), vehicle: saline) of the same compound?
A: 109 % of control

Q: What about the T/C (dose: 0.03 mg/kg/injection, schedule: Q04DX003 (ip), vehicle: saline) of the same compound?
A: 86 % of control and 102 % of control

Q: And the T/C (dose: 0.05 mg/kg/injection, schedule: Q01DX009 (ip), vehicle: saline)?
A: 115 % of control

Q: And the T/C (dose: 0.05 mg/kg/injection, schedule: Q04DX003 (ip), vehicle: saline)?
A: 100 % of control

Q: And the T/C (dose: 0.06 mg/kg/injection, schedule: Q01DX009 (ip), vehicle: saline)?
A: 101 % of control and 109 % of control

Q: What about the T/C (dose: 0.06 mg/kg/injection, schedule: Q04DX003 (ip), vehicle: saline) of the same compound?
A: 93 % of control and 97 % of control and 107 % of control

Q: What about the T/C (dose: 0.1 mg/kg/injection, schedule: Q04DX003 (ip), vehicle: saline) of the same compound?
A: 113 % of control

Q: What about the T/C (dose: 0.12 mg/kg/injection, schedule: Q01DX001 (ip), vehicle: saline) of the same compound?
A: 106 % of control

Q: What about the T/C (dose: 0.2 mg/kg/injection, schedule: Q04DX003 (ip), vehicle: saline) of the same compound?
A: 115 % of control and 122 % of control

Q: And the T/C [1]?
A: 106 % of control and 111 % of control

Q: What about the T/C [2] of the same compound?
A: 121 % of control

Q: What about the T/C (dose: 0.35 mg/kg/injection, schedule: Q04DX003 (ip), vehicle: saline) of the same compound?
A: 120 % of control

Q: And the T/C (dose: 0.37 mg/kg/injection, schedule: Q01DX001 (ip), vehicle: saline)?
A: 105 % of control

Q: What about the T/C (dose: 0.6 mg/kg/injection, schedule: Q01DX009 (ip), vehicle: saline) of the same compound?
A: 116 % of control

Q: What about the T/C (dose: 0.75 mg/kg/injection, schedule: Q01DX001 (ip), vehicle: saline) of the same compound?
A: 105 % of control and 115 % of control

Q: And the T/C (dose: 0.8 mg/kg/injection, schedule: Q04DX003 (ip), vehicle: saline)?
A: 188 % of control

Q: What about the T/C [3] of the same compound?
A: 93 % of control

Q: What about the T/C [4] of the same compound?
A: 123 % of control

Q: And the T/C [5]?
A: 93 % of control

Q: What about the T/C (dose: 15.0 micrograms/kg/injection, schedule: Q01DX009 (ip), vehicle: saline) of the same compound?
A: 113 % of control

Q: And the T/C (dose: 25.0 micrograms/kg/injection, schedule: Q01DX009 (ip), vehicle: saline)?
A: 102 % of control

Q: What about the T/C (dose: 30.0 micrograms/kg/injection, schedule: Q01DX009 (ip), vehicle: saline) of the same compound?
A: 115 % of control

Q: What about the T/C (dose: 50.0 micrograms/kg/injection, schedule: Q01DX009 (ip), vehicle: saline) of the same compound?
A: 111 % of control

Q: And the T/C (dose: 100.0 micrograms/kg/injection, schedule: Q01DX009 (ip), vehicle: saline)?
A: 116 % of control

Q: And the T/C (dose: 120.0 micrograms/kg/injection, schedule: Q01DX009 (ip), vehicle: saline)?
A: 107 % of control

Q: What about the T/C (dose: 250.0 micrograms/kg/injection, schedule: Q01DX009 (ip), vehicle: saline) of the same compound?
A: 105 % of control

Q: Which T/C (dose: 0.15 mg/kg/injection, schedule: Q04DX003 (ip), vehicle: saline) does the source give for `CN(Cc1cnc2nc(N)nc(N)c2n1)c1ccc(C(=O)N[C@@H](CCC(=O)O)C(=O)O)cc1` here?
A: 100 % of control

Q: And the T/C [1]?
A: 106 % of control

Q: And the T/C (dose: 0.25 mg/kg/injection, schedule: Q01DX009 (ip), vehicle: saline)?
A: 112 % of control

Q: And the T/C (dose: 0.25 mg/kg/injection, schedule: Q01DX015 (ip), vehicle: saline)?
A: 114 % of control and 116 % of control

Q: What about the T/C [2] of the same compound?
A: 111 % of control

Q: And the T/C (dose: 0.5 mg/kg/injection, schedule: Q01DX001 (ip), vehicle: saline)?
A: 109 % of control and 117 % of control

Q: And the T/C (dose: 0.5 mg/kg/injection, schedule: Q04DX008 (ip), vehicle: saline)?
A: 116 % of control

Q: And the T/C (dose: 0.6 mg/kg/injection, schedule: Q04DX003 (ip), vehicle: saline)?
A: 98 % of control

Q: What about the T/C (dose: 0.75 mg/kg/injection, schedule: Q01DX009 (ip), vehicle: saline) of the same compound?
A: 112 % of control

Q: What about the T/C (dose: 0.75 mg/kg/injection, schedule: Q04DX003 (ip), vehicle: saline) of the same compound?
A: 87 % of control and 93 % of control and 111 % of control

Q: What about the T/C (dose: 1.0 mg/kg/injection, schedule: Q01DX001 (ip), vehicle: saline) of the same compound?
A: 109 % of control and 115 % of control

Q: What about the T/C [3] of the same compound?
A: 91 % of control

Q: And the T/C [4]?
A: 89 % of control and 102 % of control

Q: And the T/C (dose: 1.5 mg/kg/injection, schedule: Q01DX015 (ip), vehicle: saline)?
A: 197 % of control

Q: What about the T/C (dose: 2.0 mg/kg/injection, schedule: Q01DX001 (ip), vehicle: saline) of the same compound?
A: 106 % of control and 115 % of control

Q: What about the T/C (dose: 2.0 mg/kg/injection, schedule: Q04DX003 (ip), vehicle: saline) of the same compound?
A: 95 % of control

Q: What about the T/C [5] of the same compound?
A: 87 % of control and 91 % of control

Q: And the T/C (dose: 3.0 mg/kg/injection, schedule: Q01DX001 (ip), vehicle: saline)?
A: 100 % of control and 114 % of control and 116 % of control

Q: What about the T/C (dose: 4.0 mg/kg/injection, schedule: Q01DX001 (ip), vehicle: saline) of the same compound?
A: 116 % of control

Q: What about the T/C (dose: 4.0 mg/kg/injection, schedule: Q01DX009 (ip), vehicle: saline) of the same compound?
A: 94 % of control

Q: What about the T/C (dose: 4.0 mg/kg/injection, schedule: Q04DX003 (ip), vehicle: saline) of the same compound?
A: 109 % of control

Q: What about the T/C (dose: 4.0 mg/kg/injection, schedule: Q04DX008 (ip), vehicle: saline) of the same compound?
A: 113 % of control

Q: What about the T/C (dose: 5.0 mg/kg/injection, schedule: Q01DX001 (ip), vehicle: saline) of the same compound?
A: 114 % of control

Q: What about the T/C (dose: 5.0 mg/kg/injection, schedule: Q01DX009 (ip), vehicle: saline) of the same compound?
A: 88 % of control

Q: And the T/C (dose: 10.0 mg/kg/injection, schedule: Q01DX001 (ip), vehicle: saline)?
A: 102 % of control and 104 % of control

Q: What about the T/C (dose: 11.0 mg/kg/injection, schedule: Q04DX008 (ip), vehicle: saline) of the same compound?
A: 123 % of control

Q: What about the T/C (dose: 12.0 mg/kg/injection, schedule: Q01DX001 (ip), vehicle: saline) of the same compound?
A: 107 % of control and 111 % of control

Q: What about the T/C (dose: 12.0 mg/kg/injection, schedule: Q04DX003 (ip), vehicle: saline) of the same compound?
A: 93 % of control and 100 % of control

Q: And the T/C (dose: 16.0 mg/kg/injection, schedule: Q04DX004 (ip), vehicle: saline)?
A: 93 % of control

Q: And the T/C (dose: 20.0 mg/kg/injection, schedule: Q01DX001 (ip), vehicle: saline)?
A: 102 % of control

Q: And the T/C (dose: 24.0 mg/kg/injection, schedule: Q04DX003 (ip), vehicle: saline)?
A: 94 % of control

Q: And the T/C (dose: 24.0 mg/kg/injection, schedule: Q04DX004 (ip), vehicle: saline)?
A: 115 % of control

Q: And the T/C (dose: 40.0 mg/kg/injection, schedule: Q01DX001 (ip), vehicle: saline)?
A: 108 % of control

Q: Which T/C [6] does the source give for `CC1NC1(c1ccccc1)[n+]1ccccc1` (centres undefined) here?
A: 100 % of control

Q: Which results are given for `CCOc1ccc2nc(N)sc2c1`?
A: T/C [7]: 89 % of control; T/C [8]: 92 % of control

Q: For `ClC1=C(Cl)C2(Cl)C(COc3ccc(Cl)cc3)CC1(Cl)C2(Cl)Cl` (centres undefined), which T/C (dose: 100.0 mg/kg/injection, schedule: Q01DX001 (ip), vehicle: saline) is on record?
A: 94 % of control

Q: What about the T/C [6] of the same compound?
A: 88 % of control

Q: What about the T/C (dose: 400.0 mg/kg/injection, schedule: Q01DX001 (ip), vehicle: saline) of the same compound?
A: 91 % of control

Q: For `O=C(Cc1ccc2cc3c(cc2c1)OCO3)NCCc1ccc2c(c1)OCO2`, which T/C [7] is on record?
A: 92 % of control

Q: And the T/C (dose: 100.0 mg/kg/injection, schedule: Q04DX003 (ip), vehicle: Klucel (hydroxypropylcellulose) (HPC))?
A: 100 % of control

Q: What about the T/C [8] of the same compound?
A: 94 % of control

Q: And the T/C (dose: 200.0 mg/kg/injection, schedule: Q04DX003 (ip), vehicle: Klucel (hydroxypropylcellulose) (HPC))?
A: 96 % of control

Q: And the T/C (dose: 400.0 mg/kg/injection, schedule: Q01DX001 (ip), vehicle: Klucel (hydroxypropylcellulose) (HPC))?
A: 100 % of control

Q: And the T/C (dose: 400.0 mg/kg/injection, schedule: Q04DX003 (ip), vehicle: Klucel (hydroxypropylcellulose) (HPC))?
A: 92 % of control
